Measured values reported in patent US10406175B2, “Polymer-flavonoid conjugate and uses thereof” (Agency for Science, Technology and Research, priority 2014, dated 2019).

Legend:
Assay type in all cases: cell-based, human
IL-6 = test: IL-1ß-induced IL-6 expression in OA chondrocytes (RT-PCR and ELISA); conditions: IL-1ß 5 ng/ml, 24 h; EGCG 10 μM; HA or conjugate at two concentrations (FIGS. 2, 5)
Procedure: (§1) Cryopreserved human osteoarthritis chondrocytes (passage 1) were obtained from Cell Applications, INC. (USA). The cells were thawed and cultured in T75 cell culture flasks using complete growth medium (DMEM/F12 medium supplemented with 10% FBS and 1% penicillin/streptomycin). The cells were maintained at 37° C. and 5% CO2 atmosphere. Growth medium was replaced every 2-3 days and the cells were subcultured at 80% confluency. Only cells at passage 2 and 3 were used in this study. After expansion, the cells were re-differentiated in alginate beads according to previously established protocol with some modifications. Briefly, cells were trypsinized, pelleted and resuspended in 1.2% (w/v) sodium alginate in 0.15 M NaCl. The cell suspension was dispensed through a 210 needle dropwise into gelation solution (102 mM CaCl2, 10 mM HEPES and 0.0005% Tween 20, pH 7.4). Approximately 15 alginate beads were dispensed in 5 ml of gelation solution in a 6-wellplate. After gelation for 10 min, the gelation solution was removed and the alginate beads were washed twice with 5 ml of 0.15 M NaCl. Complete growth medium (5 ml) was then added and the cells were re-differentiated for 8 days in the alginate beads. Medium was changed every 2-3 days. After 8 days, the alginate beads were solubilized in dissolution solution (55 mM EDTA and 10 mM HEPES, pH 7.4).

TNF-α = test: IL-1ß-induced TNF-α expression in OA chondrocytes (RT-PCR and ELISA); conditions: IL-1ß 5 ng/ml, 24 h; EGCG 10 μM; HA or conjugate at two concentrations (FIGS. 2, 5)
Procedure: as §1

MMP-1 = test: IL-1ß-induced MMP-1 expression in OA chondrocytes (RT-PCR and ELISA); conditions: IL-1ß 5 ng/ml, 24 h; EGCG 10 μM; HA or conjugate at two concentrations (FIGS. 3, 6)
Procedure: as §1

MMP-3 = test: IL-1ß-induced MMP-3 expression in OA chondrocytes (RT-PCR and ELISA); conditions: IL-1ß 5 ng/ml, 24 h; EGCG 10 μM; HA or conjugate at two concentrations (FIGS. 3, 6)
Procedure: as §1

MMP-13 = test: IL-1ß-induced MMP-13 expression in OA chondrocytes (RT-PCR and ELISA); conditions: IL-1ß 5 ng/ml, 24 h; EGCG 10 μM; HA or conjugate at two concentrations (FIGS. 3, 6)
Procedure: as §1

O=C(O[C@@H]1Cc2c(O)cc(O)cc2O[C@@H]1c1cc(O)c(O)c(O)c1)c1cc(O)c(O)c(O)c1 [EGCG, epigallocatechin gallate]
effectively inhibited: downregulation of IL-1ß-induced IL-6 gene and protein expression (IL-6) | downregulation of IL-1ß-induced TNF-α gene and protein expression (TNF-α) | downregulation of IL-1ß-induced MMP-1 gene and protein expression (MMP-1) | downregulation of IL-1ß-induced MMP-3 gene and protein expression (MMP-3) | downregulation of IL-1ß-induced MMP-13 gene and protein expression (MMP-13)
